Results: patent US20190094246A1, “DETECTION OF NEURODEGENERATIVE DISEASES” (AMONETA DIAGNOSTICS SAS, priority 2016, published 2019)

Legend:
[1] = test system: red blood cells (RBCs) from human subjects; assay: Dose-dependent staining of RBCs, flow cytometry (MEDFI); assay type: cell-based; conditions: 0.03, 0.1, 0.3, 1 and 3 μM; RBCs 200 000 cells/mL of 3 human subjects; channel FL1 (Ex. 1), FL3 (Ex. 9)
Method: The blood from an animal or a human subject is sampled in specific 5 mL tube, such as lithium-heparin tube. The blood is manually mixed by inversion before use.
Red blood cells (RBCs) are obtained from whole blood after centrifugation at 200 g for 10 minutes at room temperature. RBCs pellet down and segregate from white blood cells, platelets and plasma. 5 μL of RBCs are pipetted, diluted 1000 times in 5 mL of Flow cytometry buffer (FACS buffer: 150 mM of NaCl; 1 mM of D-Glucose; 5 mM of Na2HPO4; 0.5 mM CaCl2) and either numbered by manual counting on disposable Malassez-like counting cell (X100 Cellule Fast Read, Fisher Scientific, Ref #11762712) with a microscope or counted with Flow count Fluorospheres (Beckman, Ref 7547053) so as to obtain a cell concentration of stock solution to be used in the test. […]
From these different concentration stocks, the same quantity (4) of compounds at desired concentration to be tested is added to erythrocytes in each FACS vial to obtain the same % of DMSO (0.5% of DMSO) at the end. […] In all experiments, a control is performed with the final amount of compound solvent (DMSO alone, without test compound), in order to obtain the auto-fluorescence of the RBCs.
These fluorescences are detected by the gating of erythrocytes in a log FSC/log SSC plot. […]

[2] = test system: RBCs from transgenic APP/PS1 mice versus age-matched Wild-Type mice; assay: RBC staining in Alzheimer animal model, transgenic versus wild type; assay type: cell-based
From the text: Transgenic mice used in this study carry two mutations associated with early onset AD: mutant amyloid precursor protein (K670N and M671L) and mutant human presenilin 1 (M146V). These transgenic mice develop AD-related phenotype consisting in beta-amyloid peptide overproduction and formation of amyloid plaques in their brain.

For COCCOCC#CB(C#CCOCCOC)n1c(C)cc(C)c1/C(=C1\N=C(C)C=C1C)c1ccc(C(=O)NCCCn2cc(C3=C(c4cn(C)c5ccccc45)C(=O)NC3=O)c3ccccc32)cc1 [Ex. 9], the “staining of RBCs (index MEDFI)” value [1] was “dose-dependent staining”, the “discrimination between transgenic and wild type mice by RBC staining” value ([2]; 1 μM, 5 transgenic mice and 6 age-matched wild type mice) was “excellent accuracy” and the “discrimination between the transgenic mouse group and control mouse group by RBC staining” value ([2]; concentration not given) was “good accuracy”.
